Results: patent US6518291B1, “Inhibitors of IMPDH enzyme” (Vertex Pharmaceuticals, Incorporated, priority 1997, dated 2003)
pKi: −log10 of the molar value.

Target: IMPDH human type II (Homo sapiens, UniProt P12268)
Experiment: IMPDH Activity Inhibition Assay (spectrophotometric, NADH formation at 340 nm)
Format: biochemical
Details: 37° C., tight-binding equations of Henderson
Procedure: We measured the inhibition constants of the compounds listed in Table II utilizing the following protocol:
IMP dehydrogenase activity was assayed following an adaptation of the method first reported by Magasanik. [Magasanik, B. Moyed, H. S. and Gehring L. B. (1957) J. Biol. Chem. 226, 339]. Enzyme activity was measured spectrophotometrically, by monitoring the increase in absorbance at 340 nm due to the formation of NADH (ε340 is 6220 M^−1 cm^−1). The reaction mixture contained 0.1 M Tris pH 8.0, 0.1 M KCl, 3 mM EDTA, 2 mM DTT, […] and enzyme (IMPDH human type II) at a concentration of 15 to 50 nM. This solution is incubated at 37° C. for 10 minutes. The reaction is started by adding NAD to a final concentration of […] and the initial rate is measured by following the linear increase in absorbance at 340 nm for 10 minutes. For reading in a standard spectrophotometer (path length 1 cm) the final volume in the cuvette is 1.0 ml. The assay has also been adapted to a 96 well microtiter plate format; in this case the concentrations of all the reagents remain the same and the final volume is decreased to 200 μl.
For the analysis of inhibitors, the compound in question is dissolved in DMSO to a final concentration of 20 mM and added to the initial assay mixture for preincubation with the enzyme at a final volume of 2-5% (v/v). The reaction is started by the addition of NAD, and the initial rates measured as above. Ki determinations are made by measuring the initial velocities in the presence of varying amounts of inhibitor and fitting the data using the tight-binding equations of Henderson (Henderson, P. J. F. (1972) Biochem. J. 127, 321].
Ki values are expressed in nM. Category “A” indicates 0.01 to 500 nm activity, category “B” indicates 501-5,000 nm activity, category “C” indicates 5,001 to 15,000 nm activity, category “D” indicates greater than 15,000 nm activity. The designation “ND” is used where a given compound was not tested.

| pKi | SMILES |
| --- | --- |
| < 4.82 | c1ccc(Nc2nc3ccccc3[nH]2)cc1 [Compound 2] |
| < 4.82 | COc1ccc(Nc2nc3ccccc3[nH]2)cc1 [Compound 3] |
| < 4.82 | Cc1ccc(Nc2nc3ccccc3[nH]2)cc1 [Compound 4] |
| 5.30 to 6.30 | COc1cc(Nc2nc3ccccc3[nH]2)ccc1-c1cnco1 [Compound 5] |
| < 4.82 | COc1ccccc1Nc1nc2ccccc2o1 [Compound 6] |
| < 4.82 | COc1ccccc1Nc1nc2ccccc2s1 [Compound 7] |
| 6.30 to 11.00 | COc1cc(Nc2nc3ccccc3o2)ccc1-c1cnco1 [Compound 8] |
| 6.30 to 11.00 | COc1cc(Nc2nc3ccccc3s2)ccc1-c1cnco1 [Compound 9] |
| 6.30 to 11.00 | COC(=O)c1ccc2nc(Nc3ccc(-c4cnco4)c(OC)c3)[nH]c2c1 [Compound 10] |
| 5.30 to 6.30 | COc1cc(Nc2nc3ccc(CO)cc3[nH]2)ccc1-c1cnco1 [Compound 11] |
| 6.30 to 11.00 | COc1cc(Nc2nc3cc(C)ccc3o2)ccc1-c1cnco1 [Compound 12] |
| 4.82 to 5.30 | COc1cc(Nc2nc3ccccc3s2)ccc1C#N [Compound 13] |
| 6.30 to 11.00 | COc1cc(Nc2nc3ccc(C)cc3o2)ccc1-c1cnco1 [Compound 14] |
| 4.82 to 5.30 | COc1cc(Nc2nc3ccccc3[nH]2)ccc1C#N [Compound 15] |
| 6.30 to 11.00 | COc1cc(Nc2nc3c(C)cccc3[nH]2)ccc1-c1cnco1 [Compound 16] |
| 6.30 to 11.00 | COc1cc(Nc2nc3cc(C)c(C)cc3o2)ccc1-c1cnco1 [Compound 17] |
| < 4.82 | c1ccc2oc(Nc3ccc(-c4cnco4)cc3)nc2c1 [Compound 18] |
| < 4.82 | COc1ccc(Nc2nc3ccccc3o2)cc1OC [Compound 19] |
| < 4.82 | N#Cc1ccc(Nc2nc3ccccc3o2)cc1Cl [Compound 20] |
| < 4.82 | COc1cc(Nc2nc3ccccc3o2)ccc1C#N [Compound 21] |
| 5.30 to 6.30 | COc1cc(Nc2nc3cc(C)ccc3o2)ccc1-c1cnco1 [Compound 22] |
| 5.30 to 6.30 | Clc1cc(Nc2nc3ccccc3o2)ccc1-c1cnco1 [Compound 23] |
| < 4.82 | COc1cccc(Nc2nc3ccccc3o2)c1 [Compound 24] |
| 6.30 to 11.00 | C=CCc1cccc2nc(Nc3ccc(-c4cnco4)c(OC)c3)oc12 [Compound 25] |
